Measured values from US7994185B2, “Benzene sulfonamide thiazole and oxazole compounds” (Glaxo Smith Kline LLC, priority 2008, dated 2011).
Read-outs that look alike come from different tables or passages of the source.

Tests used:
[1] = target: T1, BRAFV600E full-length (amino acids 2-766) (Homo sapiens, UniProt P15056, V600E); experiment: B-Raf Accelerated MEK ATPase assay (BRAMA); format: biochemical
T1 construct: His6-tagged BRAFV600E full-length (amino acids 2-766); His6; made in house; host or cells: baculovirus expression system (insect cells)
T1 sequence (P15056 2-766 V600E): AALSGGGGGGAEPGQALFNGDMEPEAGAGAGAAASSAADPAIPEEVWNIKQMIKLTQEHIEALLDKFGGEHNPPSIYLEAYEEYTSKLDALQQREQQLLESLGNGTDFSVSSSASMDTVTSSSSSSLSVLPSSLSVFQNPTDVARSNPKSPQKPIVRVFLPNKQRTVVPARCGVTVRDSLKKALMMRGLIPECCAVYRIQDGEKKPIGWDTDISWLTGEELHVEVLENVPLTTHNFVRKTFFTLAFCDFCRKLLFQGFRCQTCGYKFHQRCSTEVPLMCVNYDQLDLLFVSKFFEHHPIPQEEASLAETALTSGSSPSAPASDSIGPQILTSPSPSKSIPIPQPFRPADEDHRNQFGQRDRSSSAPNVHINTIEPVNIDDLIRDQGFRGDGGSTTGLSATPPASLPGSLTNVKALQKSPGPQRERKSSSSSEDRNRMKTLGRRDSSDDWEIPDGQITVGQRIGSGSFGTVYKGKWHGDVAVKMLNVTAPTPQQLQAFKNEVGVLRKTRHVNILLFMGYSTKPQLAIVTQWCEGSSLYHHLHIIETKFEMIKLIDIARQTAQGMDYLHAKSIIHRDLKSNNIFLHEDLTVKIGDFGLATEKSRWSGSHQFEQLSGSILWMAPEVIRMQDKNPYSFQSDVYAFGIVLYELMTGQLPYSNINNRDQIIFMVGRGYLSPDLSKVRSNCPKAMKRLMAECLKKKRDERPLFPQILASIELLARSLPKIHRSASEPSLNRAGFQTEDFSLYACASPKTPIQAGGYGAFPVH
Summary of the method: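 Coupled-enzyme readout: ADP generated by MEK-mediated ATP hydrolysis, uncoupled from ERK phosphorylation, is linked to NADH oxidation through pyruvate kinase and lactate dehydrogenase.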

[2] = test system: Human melanoma cancer cells (SK-MEL-28); experiment: Cell growth inhibition assay (CellTiter-Glo), SK-MEL-28; format: cell-based
[3] = test system: Human colon tumor cells (Colo205); experiment: Cell growth inhibition assay (CellTiter-Glo), Colo205; format: cell-based
Summary of the method: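 Read-out was CellTiter-Glo luminescence (total ATP as a cell-number surrogate), expressed as % inhibition against DMSO vehicle wells. Before that, cells grown in RPMI/10% FBS were treated for 3 days at 37 °C with ten 1:3-spaced compound concentrations, final DMSO 0.2%.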

[4] = B-Raf Activity, Table 1a, highest pIC50 for the one or more runs, categorized
[5] = B-Raf pIC50, Table 1b, later runs, average pIC50 for the one or more runs, categorized
[6] = SK-MEL-28, 72 h, Table 3a, 3 days incubation, read-out: Activity in SK-MEL-28 Tumor Cells
[7] = SK-MEL-28, Table 3b, later runs, average for the one or more runs, categorized, read-out: IC50 for SK-MEL-28
[8] = COLO 205, 72 h, Table 2a, 3 days incubation, read-out: Activity in Colo205 Tumor Cells
[9] = COLO 205, Table 2b, later runs, average for the one or more runs, categorized, read-out: IC50 for Colo205
[10] = Table 1b, later runs, average pIC50 for the one or more runs, categorized, read-out: B-Raf pIC50 (converted)

Row | SMILES | IC50 [1, 4] [µM] | IC50 [1, 5] [µM] | IC50 [2, 6] [µM] | IC50 [2, 7] [µM] | IC50 [3, 8] [µM] | IC50 [3, 9] [µM] | IC50 [1, 10] [µM] | IC50 [1] [µM]
1 | CCOCCNc1nccc(-c2sc(C(C)(C)C)nc2-c2cccc(NS(=O)(=O)c3cc(F)ccc3F)c2F)n1 [Example 212] | < 0.1 | ≤ 0.00316 | < 0.1 | < 0.1 | < 0.1 | < 0.1 |  | 
2 | O=S(=O)(Nc1cccc(-c2nc(C3CCOCC3)sc2-c2ccncn2)c1Cl)c1cc(F)ccc1F [Example 243, N-{2-chloro-3-[5-(4-pyrimidinyl)-2-(tetrahydro-2H-pyran-4-yl)-1,3-thiazol-4-yl]phenyl}-2,5-difluorobenzenesulfonamide] |  | ≤ 0.00316 |  | < 0.1 |  | < 0.1 |  | 
3 | CC(C)CNc1nccc(-c2scnc2-c2cccc(NS(=O)(=O)c3c(F)cccc3F)c2)n1 [Example 115, 2,6-Difluoro-N-[3-(5-{2-[(2-methylpropyl)amino]-4-pyrimidinyl}-1,3-thiazol-4-yl)phenyl]benzenesulfonamide] | > 1 |  | > 1 | 1 to 10 | > 1 | 1 to 10 | 0.00316 to 0.0316 | 
4 | CS(=O)(=O)CCNc1nccc(-c2sc(N3CCCC3)nc2-c2cccc(NS(=O)(=O)c3c(F)cccc3F)c2)n1 [Example 32, 2,6-Difluoro-N-{3-[5-(2-{[2-(methylsulfonyl)ethyl]amino}-4-pyrimidinyl)-2-(1-pyrrolidinyl)-1,3-thiazol-4-yl]phenyl}benzenesulfonamide] | < 0.1 | ≤ 0.00316 | < 0.1 | < 0.1 | < 0.1 | < 0.1 |  | 
5 | CC(C)(C)c1nc(-c2cccc(NS(=O)(=O)c3c(F)cccc3F)c2F)c(-c2ccnc(NCCCS(C)(=O)=O)n2)s1 [Example 12, N-{3-[2-(1,1-Dimethylethyl)-5-(2-{[3-(methylsulfonyl)propyl]amino}-4-pyrimidinyl)-1,3-thiazol-4-yl]-2-fluorophenyl}-2,6-difluorobenzenesulfonamide] | < 0.1 | ≤ 0.00316 | < 0.1 | < 0.1 | < 0.1 | < 0.1 |  | 
6 | CNc1nccc(-c2sc(C(C)C)nc2-c2cccc(NS(=O)(=O)c3cccc(F)c3)c2)n1 [Example 86, 3-Fluoro-N-{3-[5-[2-(methylamino)-4-pyrimidinyl]-2-(1-methylethyl)-1,3-thiazol-4-yl]phenyl}benzenesulfonamide] | < 0.1 | 0.0316 to 1 | > 1 | 1 to 10 | > 1 | 1 to 10 |  | 
7 | CC(C)c1nc(-c2ccc(F)c(NS(=O)(=O)c3cc(F)ccc3F)c2)c(-c2ccnc(NC3CC3)n2)s1 [Example 122] | < 0.1 | 0.0316 to 1 | > 1 | 1 to 10 | > 1 | 1 to 10 |  | 
8 | CC(C)(C)c1nc(-c2cccc(NS(=O)(=O)c3c(F)cccc3F)c2F)c(-c2ccnc(NC3CCN(S(C)(=O)=O)CC3)n2)s1 [Example 78, N-{3-[2-(1,1-Dimethylethyl)-5-(2-{[1-(methylsulfonyl)-4-piperidinyl]amino}-4-pyrimidinyl)-1,3-thiazol-4-yl]-2-fluorophenyl}-2,6-difluorobenzenesulfonamide] | < 0.1 | ≤ 0.00316 | < 0.1 | < 0.1 | < 0.1 | < 0.1 |  | 
9 | CC(C)(C)c1nc(-c2cccc(NS(=O)(=O)c3c(F)cccc3F)c2)c(-c2ccnc(NCCS(C)(=O)=O)n2)s1 [Example 2, N-{3-[2-(1,1-Dimethylethyl)-5-(2-{[2-(methylsulfonyl)ethyl]amino}-4-pyrimidinyl)-1,3-thiazol-4-yl]phenyl}-2,6-difluorobenzenesulfonamide] | < 0.1 | ≤ 0.00316 | < 0.1 | < 0.1 | < 0.1 | < 0.1 |  | 
10 | CC(C)(C)c1nc(-c2cccc(NS(=O)(=O)c3cc(F)ccc3F)c2F)c(-c2ccnc(NCC3CCCO3)n2)s1 (centres unmarked) [Example 213] | < 0.1 | ≤ 0.00316 | < 0.1 | < 0.1 | < 0.1 | < 0.1 |  | 
11 | CC(C)c1nc(-c2ccc(F)c(NS(=O)(=O)c3c(F)cccc3F)c2)c(-c2ccnc(NCCN3CCCC3)n2)s1 [Example 164] |  |  | > 1 | 1 to 10 | > 1 | 1 to 10 |  | > 1
12 | Cc1nccc(-c2sc(N3CCOCC3)nc2-c2cccc(NS(=O)(=O)c3ccoc3)c2Cl)n1 [Example 271, N-{2-chloro-3-[5-(2-methyl-4-pyrimidinyl)-2-(4-morpholinyl)-1,3-thiazol-4-yl]phenyl}-3-furansulfonamide] |  |  |  | < 0.1 |  | 0.1 to 1 | 0.00316 to 0.0316 | 
13 | CC(C)Nc1nccc(-c2sc(C(C)C)nc2-c2cccc(NS(=O)(=O)c3cccc(F)c3)c2)n1 [Example 158] | < 0.1 | 0.0316 to 1 | > 1 | 1 to 10 | > 1 | 1 to 10 |  | 
14 | CC(C)(C)c1nc(-c2cccc(NS(=O)(=O)c3ccoc3)c2F)c(-c2ccnc(N)n2)s1 [Example 234, N-{3-[5-(2-amino-4-pyrimidinyl)-2-(1,1-dimethylethyl)-1,3-thiazol-4-yl]-2-fluorophenyl}-3-furansulfonamide] |  | ≤ 0.00316 |  | < 0.1 |  | < 0.1 |  | 
15 | Cc1csc(S(=O)(=O)Nc2cccc(-c3nc(C(C)(C)C)sc3-c3ccnc(N)n3)c2F)c1 [Example 235, N-{3-[5-(2-amino-4-pyrimidinyl)-2-(1,1-dimethylethyl)-1,3-thiazol-4-yl]-2-fluorophenyl}-4-methyl-2-thiophenesulfonamide] |  |  |  | < 0.1 |  | < 0.1 | 0.00316 to 0.0316 | 
16 | CC(C)(C)c1nc(-c2cccc(NS(=O)(=O)c3cc(F)ccc3F)c2F)c(-c2ccnc(CCC(=O)N3CCS(=O)(=O)CC3)n2)s1 [Example 255, N-[3-(2-(1,1-dimethylethyl)-5-{2-[3-(1,1-dioxido-4-thiomorpholinyl)-3-oxopropyl]-4-pyrimidinyl}-1,3-thiazol-4-yl)-2-fluorophenyl]-2,5-difluorobenzenesulfonamide] |  |  |  | < 0.1 |  | < 0.1 | 0.00316 to 0.0316 | 
17 | CS(=O)(=O)CCNc1nccc(-c2sc(N3CCOCC3)nc2-c2cccc(NS(=O)(=O)c3c(F)cccc3F)c2F)n1 [Example 14, 2,6-Difluoro-N-{2-fluoro-3-[5-(2-{[2-(methylsulfonyl)ethyl]amino}-4-pyrimidinyl)-2-(4-morpholinyl)-1,3-thiazol-4-yl]phenyl}benzenesulfonamide] | < 0.1 | ≤ 0.00316 | < 0.1 | < 0.1 | < 0.1 | < 0.1 |  | 
18 | CC(C)CNc1nccc(-c2sc(C(C)C)nc2-c2cccc(NS(=O)(=O)c3cccnc3)c2F)n1 [Example 42, N-[2-Fluoro-3-(2-(1-methylethyl)-5-{2-[(2-methylpropyl)amino]-4-pyrimidinyl}-1,3-thiazol-4-yl)phenyl]-3-pyridinesulfonamide] | < 0.1 | ≤ 0.00316 | < 0.1 | < 0.1 | < 0.1 | < 0.1 |  | 
